In ChEMBL document CHEMBL4184243, “Optimization of antimalarial, and anticancer activities of (E)-methyl 2-(7-chloroquinolin-4-ylthio)-3-(4-hydroxyphenyl) acrylate” (Bioorg Med Chem, 2018):

Key:
[1] = tested on: Jurkat; assay: Cytotoxicity against human Jurkat cells after 20 hrs by propidium iodide staining based flow cytometry; format: functional, cell-based
[2] = tested on: HL-60; assay: Cytotoxicity against human HL60 cells after 24 hrs by MTT assay; format: functional, cell-based; details: HL-60, 24 h
[3] = tested on: Jurkat E6.1; assay: Induction of apoptosis in human Jurkat E6-1 cells assessed as late apoptotic cells at 100 uM after 24 hrs by Annexin-V-FITC/propidium iodide staining based flow cytometric analysis (reference value: 0.73 +/- 0.14 %); format: functional
[4] = tested on: HL-60; assay: Induction of apoptosis in human HL60 cells assessed as necrotic cells at 100 uM after 24 hrs by Annexin-V-FITC/propidium iodide staining based flow cytometric analysis (reference value: 1.96 +/- 0.33 %); format: functional
[5] = tested on: Plasmodium berghei; assay: Antimalarial activity against chloroquine-susceptible Plasmodium berghei ANKA infected in Balb-C mouse assessed as parasitemia at 10 mg/kg, ip administered once daily for 4 days measured post last dose by Giemsa staining based method (reference value: 65.8 +/- 4.38%); format: functional
[6] = tested on: Jurkat E6.1; assay: Induction of apoptosis in human Jurkat E6-1 cells assessed as early apoptotic cells at 100 uM after 24 hrs by Annexin-V-FITC/propidium iodide staining based flow cytometric analysis (reference value: 0.5 +/- 0.07 %); format: functional
[7] = tested on: Lymphocyte; assay: Cytotoxicity against human lymphocytes after 24 to 48 hrs by MTT assay; format: cell-based
[8] = tested on: HL-60; assay: Induction of apoptosis in human HL60 cells assessed as late apoptotic cells at 100 uM after 24 hrs by Annexin-V-FITC/propidium iodide staining based flow cytometric analysis (reference value: 0.85 +/- 0.13 %); format: functional
[9] = Inhibition of beta-hematin formation assessed as reduction in acetate buffer-initiated hemozoin formation measured after 48 hrs; parameters: concentration or dose not given beside the values; details: concentration not given here
[10] = tested on: HL-60; assay: Induction of apoptosis in human HL60 cells assessed as early apoptotic cells at 100 uM after 24 hrs by Annexin-V-FITC/propidium iodide staining based flow cytometric analysis (reference value: 0.36 +/- 0.02 %); format: functional
[11] = tested on: Jurkat E6.1; assay: Induction of apoptosis in human Jurkat E6-1 cells assessed as necrotic cells at 100 uM after 24 hrs by Annexin-V-FITC/propidium iodide staining based flow cytometric analysis (reference value: 1.26 +/- 0.24 %); format: functional
[12] = tested on: Plasmodium berghei; assay: Antimalarial activity against chloroquine-susceptible Plasmodium berghei ANKA infected in Balb-C mouse assessed as mean survival days at 10 mg/kg, ip administered once daily for 4 days (reference value: 8.4 +/- 0.15 day); format: functional
[13] = tested on: Jurkat E6.1; assay: Cytotoxicity against human Jurkat E6-1 cells after 24 hrs by MTT assay; format: functional, cell-based; details: Jurkat E6.1, 24 h
[14] = tested on: Jurkat E6.1; assay: Induction of apoptosis in human Jurkat E6-1 cells assessed as necrotic cells at 50 uM after 24 hrs by Annexin-V-FITC/propidium iodide staining based flow cytometric analysis (reference value: 1.26 +/- 0.24 %); format: functional
[15] = tested on: Jurkat E6.1; assay: Induction of apoptosis in human Jurkat E6-1 cells assessed as late apoptotic cells at 50 uM after 24 hrs by Annexin-V-FITC/propidium iodide staining based flow cytometric analysis (reference value: 0.73 +/- 0.14 %); format: functional
[16] = tested on: HL-60; assay: Induction of apoptosis in human HL60 cells assessed as early apoptotic cells at 50 uM after 24 hrs by Annexin-V-FITC/propidium iodide staining based flow cytometric analysis (reference value: 0.36 +/- 0.02 %); format: functional
[17] = tested on: HL-60; assay: Induction of apoptosis in human HL60 cells assessed as late apoptotic cells at 50 uM after 24 hrs by Annexin-V-FITC/propidium iodide staining based flow cytometric analysis (reference value: 0.85 +/- 0.13 %); format: functional
[18] = tested on: HL-60; assay: Induction of apoptosis in human HL60 cells assessed as necrotic cells at 50 uM after 24 hrs by Annexin-V-FITC/propidium iodide staining based flow cytometric analysis (reference value: 1.96 +/- 0.33 %); format: functional
[19] = tested on: Jurkat E6.1; assay: Induction of apoptosis in human Jurkat E6-1 cells assessed as early apoptotic cells at 50 uM after 24 hrs by Annexin-V-FITC/propidium iodide staining based flow cytometric analysis (reference value: 0.5 +/- 0.07 %); format: functional
[20] = tested on: HL-60; assay: Induction of apoptosis in human HL60 cells assessed as early apoptotic cells at 5 uM after 24 hrs by Annexin-V-FITC/propidium iodide staining based flow cytometric analysis (reference value: 0.36 +/- 0.02 %); format: functional
[21] = tested on: Jurkat E6.1; assay: Induction of apoptosis in human Jurkat E6-1 cells assessed as early apoptotic cells at 5 uM after 24 hrs by Annexin-V-FITC/propidium iodide staining based flow cytometric analysis (reference value: 0.5 +/- 0.07 %); format: functional
[22] = tested on: HL-60; assay: Induction of apoptosis in human HL60 cells assessed as late apoptotic cells at 5 uM after 24 hrs by Annexin-V-FITC/propidium iodide staining based flow cytometric analysis (reference value: 0.85 +/- 0.13 %); format: functional
[23] = tested on: Jurkat E6.1; assay: Induction of apoptosis in human Jurkat E6-1 cells assessed as late apoptotic cells at 5 uM after 24 hrs by Annexin-V-FITC/propidium iodide staining based flow cytometric analysis (reference value: 0.73 +/- 0.14 %); format: functional
[24] = tested on: HL-60; assay: Induction of apoptosis in human HL60 cells assessed as necrotic cells at 5 uM after 24 hrs by Annexin-V-FITC/propidium iodide staining based flow cytometric analysis (reference value: 1.96 +/- 0.33 %); format: functional
[25] = tested on: Jurkat E6.1; assay: Induction of apoptosis in human Jurkat E6-1 cells assessed as necrotic cells at 5 uM after 24 hrs by Annexin-V-FITC/propidium iodide staining based flow cytometric analysis (reference value: 1.26 +/- 0.24 %); format: functional
[26] = Selectivity index, ratio of IC50 for human lymphocytes to IC50 for human Jurkat E6-1 cells; format: toxicity; details: human lymphocytes versus Jurkat E6-1 cells, read-out: Ratio IC50
[27] = Selectivity index, ratio of IC50 for human lymphocytes to IC50 for human HL60 cells; format: toxicity; details: human lymphocytes versus HL60 cells, read-out: Ratio IC50
[28] = tested on: HL-60; assay: Induction of apoptosis in human HL60 cells assessed as early apoptotic cells at 1 uM after 24 hrs by Annexin-V-FITC/propidium iodide staining based flow cytometric analysis (reference value: 0.36 +/- 0.02 %); format: functional
[29] = tested on: HL-60; assay: Induction of apoptosis in human HL60 cells assessed as late apoptotic cells at 1 uM after 24 hrs by Annexin-V-FITC/propidium iodide staining based flow cytometric analysis (reference value: 0.85 +/- 0.13 %); format: functional
[30] = tested on: Jurkat E6.1; assay: Induction of apoptosis in human Jurkat E6-1 cells assessed as necrotic cells at 1 uM after 24 hrs by Annexin-V-FITC/propidium iodide staining based flow cytometric analysis (reference value: 1.26 +/- 0.24 %); format: functional
[31] = tested on: Jurkat E6.1; assay: Induction of apoptosis in human Jurkat E6-1 cells assessed as early apoptotic cells at 1 uM after 24 hrs by Annexin-V-FITC/propidium iodide staining based flow cytometric analysis (reference value: 0.5 +/- 0.07 %); format: functional
[32] = tested on: Jurkat E6.1; assay: Induction of apoptosis in human Jurkat E6-1 cells assessed as late apoptotic cells at 1 uM after 24 hrs by Annexin-V-FITC/propidium iodide staining based flow cytometric analysis (reference value: 0.73 +/- 0.14 %); format: functional
[33] = tested on: HL-60; assay: Induction of apoptosis in human HL60 cells assessed as necrotic cells at 1 uM after 24 hrs by Annexin-V-FITC/propidium iodide staining based flow cytometric analysis (reference value: 1.96 +/- 0.33 %); format: functional

Structure (SMILES) | IC50 [2] [µM] | Activity [5] [%] | IC50 [7] [µM] | inhibition [9] [%] | MSD [12] [days] | IC50 [13] [µM] | selectivity ratio [26] | selectivity ratio [27] | further results
CCN(CC)CCCC(C)Nc1ccnc2cc(Cl)ccc12 (stereo not drawn) [CHLOROQUINE] | > 100 | 0.8 | > 100 | 98.5 | 29.98 | 83.6 | – | – | IC50 [1]: 95 µM; Activity [3]: 7.85%; Activity [4]: 23.6%; Activity [6]: 1.4%; Activity [8]: 2.14%; Activity [10]: 0.66%; Activity [11]: 23.7%
O=c1c(O)c(-c2ccc(O)c(O)c2)oc2cc(O)cc(O)c12 [QUERCETIN] | – | – | – | – | – | – | – | – | Activity [14]: 31.9%; Activity [15]: 9.51%; Activity [16]: 0.46%; Activity [17]: 3.07%; Activity [18]: 31%; Activity [19]: 0.64%
COC(=O)/C(=C\c1ccc(O)cc1)Sc1ccnc2cc(Cl)ccc12 | 4.31 | 1.4 | 33.7 | 72.4 | 24.8 | 5.18 | 6.51 | 7.82 | Activity [20]: 0.74 - 0.75%; Activity [21]: 0.45%; Activity [22]: 3.15%; Activity [23]: 2.12%; Activity [24]: 45%; Activity [25]: 38.8%
COC(=O)/C(=C\c1ccc(OC(=O)c2cccc(OC)c2OC)cc1)Sc1ccnc2cc(Cl)ccc12 | 13 | – | 86.6 | 38.6 | – | 25.8 | 3.36 | 6.66 | –
COC(=O)/C(=C\c1ccc(OC(=O)c2ccc(OC)c(OC)c2)cc1)Sc1ccnc2cc(Cl)ccc12 | 5.29 | – | 51.1 | 12.7 | – | 8.29 | 6.16 | 9.66 | Activity [20]: 0.33%; Activity [21]: 0.76%; Activity [22]: 2.15%; Activity [23]: 13.5%; Activity [24]: 40.2%; Activity [25]: 21.5%
COC(=O)/C(=C\c1ccc(OC(=O)c2ccc(OC)cc2)cc1)Sc1ccnc2cc(Cl)ccc12 | 9.09 | – | 63.5 | 12.2 | – | 11 | 5.77 | 6.99 | –
COc1cccc2c1C(=O)c1c(O)c3c(c(O)c1C2=O)C[C@@](O)(C(=O)CO)C[C@@H]3O[C@H]1C[C@H](N)[C@H](O)[C@H](C)O1 [DOXORUBICIN] | 1.6 | – | 4.36 | – | – | 1.03 | – | – | Activity [28]: 1.91%; Activity [29]: 20.8%; Activity [30]: 32.6%; Activity [31]: 0.89%; Activity [32]: 19.8%; Activity [33]: 30.2%
COC(=O)/C(=C\c1ccc(OC(=O)c2ccccc2OC)cc1)Sc1ccnc2cc(Cl)ccc12 | 44.5 | 1.2 | > 100 | 94.6 | 28.83 | 44.6 | – | – | –
COC(=O)/C(=C\c1ccc(OC(=O)c2ccc(OC)cc2OC)cc1)Sc1ccnc2cc(Cl)ccc12 | 7.64 | – | 41.6 | 49.2 | – | 10.2 | 4.09 | 5.45 | –
